From patent US20260022142A1, “MACROCYCLIC IMMUNOMODULATORS” (Bristol-Myers Squibb Company, priority 2022, published 2026)
Bridge positions count the residues as written; N and C are the ends. Square brackets hold non-standard residues; d marks the D form. Peptide text beside a SMILES is read from it. * marks the point of attachment. Phe(4-CONH2) = NC(=O)c1ccc(C[C@H](N)C(=O)O)cc1; Phe(4-COOH) = N[C@@H](Cc1ccc(C(=O)O)cc1)C(=O)O; Bip = N[C@@H](Cc1ccc(-c2ccccc2)cc1)C(=O)O; Phe(3-Me) = Cc1cccc(C[C@H](N)C(=O)O)c1; NH(CH2)12COOH = O=C(O)CCCCCCCCCCCCN*; Val(3-OH) = CC(C)(O)[C@H](N)C(=O)O; 4Pal = N[C@@H](Cc1ccncc1)C(=O)O; Cha = N[C@@H](CC1CCCCC1)C(=O)O; Carboxymethyl = O=C(O)C*; Orn = NCCC[C@H](N)C(=O)O; Aun = NCCCCCCCCCCC(=O)O; Dab = NCC[C@H](N)C(=O)O; AEEA = NCCOCCOCC(=O)O

Molecular target: T1, PD-1/PD-L1 interaction (PE-labeled human PD-L1-Ig binding to Jurkat cell line over-expressing human PD-1) (Homo sapiens, UniProt Q15116)
T1 construct: expressed in transfected cells; host or cells: Jurkat
T1 sequence (Q15116 25-288): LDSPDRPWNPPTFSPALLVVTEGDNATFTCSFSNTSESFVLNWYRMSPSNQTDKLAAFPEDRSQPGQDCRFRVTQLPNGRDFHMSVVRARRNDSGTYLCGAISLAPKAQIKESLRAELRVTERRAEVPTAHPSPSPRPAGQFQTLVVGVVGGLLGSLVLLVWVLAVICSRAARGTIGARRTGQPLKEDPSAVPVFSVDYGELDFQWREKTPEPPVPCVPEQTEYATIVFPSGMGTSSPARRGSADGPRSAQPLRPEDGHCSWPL
Experiment: Jurkat-PD-1 Cell Binding High-Content Screening Assay (CBA)
Type: cell-based
Conditions: Jurkat cell line over-expressing human PD-1; PE-labeled PD-L1-Ig 20 nM final; read-out: Jurkat hPD1-PDL1 IC50
In short: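 First, compound is added to PD-1-expressing Jurkat cells in serum-containing DMEM and left 2 h at 37° C. Next, PE-conjugated PD-L1-Ig is introduced at 20 nM final concentration for 1 hour. Finally, cells are fixed in 4% paraformaldehyde with Hoechst 33342, washed and imaged.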

Row | SMILES | IC50
1 | Cc1cccc(C[C@@H]2NC(=O)[C@H](CC(=O)O)NC(=O)[C@H](Cc3ccc(OCC(=O)O)cc3)NC(=O)[C@H](Cc3ccncc3)NC(=O)CSC[C@@H](C(=O)N[C@@H](CCN)C(=O)NCCOCCOCC(=O)NCCCCCCCCCCC(=O)O)NC(=O)[C@H](CCC(=O)O)NC(=O)[C@H](C(C)(C)O)NC(=O)[C@H](CC3CCCCC3)NC(=O)[C@H](CCN)NC(=O)[C@@H](CC(C)C)NC(=O)[C@H](CCCN)NC(=O)[C@H](Cc3ccc(C(=O)O)cc3)NC(=O)[C@H](Cc3ccc(-c4ccccc4)cc3)NC(=O)[C@H](Cc3ccc(C(=O)O)cc3)NC2=O)c1 [Compound 3744] ({CH2CO}-[4Pal]Y(Carboxymethyl)D[Phe(3-Me)][Phe(4-COOH)][Bip][Phe(4-COOH)][Orn][dL][Dab][Cha][Val(3-OH)]EC[Dab][AEEA][Aun]-OH; thioether N-14) | 16.6 nM
2 | Cc1cccc(C[C@@H]2NC(=O)[C@H](CC(=O)O)NC(=O)[C@H](Cc3ccc(OCC(=O)O)cc3)NC(=O)[C@H](Cc3ccncc3)NC(=O)CSC[C@@H](C(=O)N[C@@H](CCN)C(=O)NCCOCCOCC(=O)NCCCCCCCCCCC(=O)O)NC(=O)[C@H](CCC(=O)O)NC(=O)[C@H](C(C)(C)O)NC(=O)[C@H](CC3CCCCC3)NC(=O)[C@H](CCN)NC(=O)[C@@H](CC(C)C)NC(=O)[C@H](CCC(N)=O)NC(=O)[C@H](Cc3ccc(OCC(=O)O)cc3)NC(=O)[C@H](Cc3ccc(-c4ccccc4)cc3)NC(=O)[C@H](Cc3ccc(OCC(=O)O)cc3)NC2=O)c1 [Compound 3746] ({CH2CO}-[4Pal]Y(Carboxymethyl)D[Phe(3-Me)]Y(Carboxymethyl)[Bip]Y(Carboxymethyl)Q[dL][Dab][Cha][Val(3-OH)]EC[Dab][AEEA][Aun]-OH; thioether N-14) | 6.8 nM
3 | Cc1cccc(C[C@@H]2NC(=O)[C@H](CC(=O)O)NC(=O)[C@H](Cc3ccc(OCC(=O)O)cc3)NC(=O)[C@H](Cc3ccncc3)NC(=O)CSC[C@@H](C(=O)N[C@@H](CCN)C(=O)NCCOCCOCC(=O)NCCCCCCCCCCC(=O)O)NC(=O)[C@H](CO)NC(=O)[C@H](C(C)(C)O)NC(=O)[C@H](CC3CCCCC3)NC(=O)[C@H](CCN)NC(=O)[C@@H](CC(C)C)NC(=O)[C@H](CCC(N)=O)NC(=O)[C@H](Cc3ccc(C(=O)O)cc3)NC(=O)[C@H](Cc3ccc(-c4ccccc4)cc3)NC(=O)[C@H](Cc3ccc(C(=O)O)cc3)NC2=O)c1 [Compound 3747] ({CH2CO}-[4Pal]Y(Carboxymethyl)D[Phe(3-Me)][Phe(4-COOH)][Bip][Phe(4-COOH)]Q[dL][Dab][Cha][Val(3-OH)]SC[Dab][AEEA][Aun]-OH; thioether N-14) | 12.1 nM
4 | Cc1cccc(C[C@@H]2NC(=O)[C@H](CC(=O)O)NC(=O)[C@H](Cc3ccc(OCC(=O)O)cc3)NC(=O)[C@H](Cc3ccncc3)NC(=O)CSC[C@@H](C(=O)N[C@@H](CCN)C(=O)NCCOCCOCC(=O)NCCCCCCCCCCC(=O)O)NC(=O)[C@H](CCC(=O)O)NC(=O)[C@H](C(C)(C)O)NC(=O)[C@H](CC3CCCCC3)NC(=O)[C@H](CCN)NC(=O)[C@@H](CC(C)C)NC(=O)[C@H](CCC(N)=O)NC(=O)[C@H](Cc3ccc(C(=O)O)cc3)NC(=O)[C@H](Cc3ccc(-c4ccccc4)cc3)NC(=O)[C@H](Cc3ccc(C(=O)O)cc3)NC2=O)c1 [Compound 3748] ({CH2CO}-[4Pal]Y(Carboxymethyl)D[Phe(3-Me)][Phe(4-COOH)][Bip][Phe(4-COOH)]Q[dL][Dab][Cha][Val(3-OH)]EC[Dab][AEEA][Aun]-OH; thioether N-14) | 10.5 nM
5 | Cc1cccc(C[C@@H]2NC(=O)[C@H](CC(=O)O)NC(=O)[C@H](Cc3ccc(C(=O)O)cc3)NC(=O)[C@H](Cc3ccncc3)NC(=O)CSC[C@@H](C(=O)N[C@@H](CCN)C(=O)NCCOCCOCC(=O)NCCCCCCCCCCC(=O)O)NC(=O)[C@H](CO)NC(=O)[C@H](C(C)(C)O)NC(=O)[C@H](CC3CCCCC3)NC(=O)[C@H](Cc3cnc[nH]3)NC(=O)[C@@H](CC(C)C)NC(=O)[C@H](CCC(N)=O)NC(=O)[C@H](Cc3ccc(OCC(=O)O)cc3)NC(=O)[C@H](Cc3ccc(-c4ccccc4)cc3)NC(=O)[C@H](Cc3ccc(OCC(=O)O)cc3)NC2=O)c1 [Compound 3749] ({CH2CO}-[4Pal][Phe(4-COOH)]D[Phe(3-Me)]Y(Carboxymethyl)[Bip]Y(Carboxymethyl)Q[dL]H[Cha][Val(3-OH)]SC[Dab][AEEA][Aun]-OH; thioether N-14) | 56.6 nM
6 | Cc1cccc(C[C@@H]2NC(=O)[C@H](CC(=O)O)NC(=O)[C@H](Cc3ccc(C(N)=O)cc3)NC(=O)[C@H](Cc3ccncc3)NC(=O)CSC[C@@H](C(=O)N[C@@H](CCN)C(=O)NCCOCCOCC(=O)NCCCCCCCCCCC(=O)O)NC(=O)[C@H](CO)NC(=O)[C@H](C(C)(C)O)NC(=O)[C@H](CC3CCCCC3)NC(=O)[C@H](CCN)NC(=O)[C@@H](CC(C)C)NC(=O)[C@H](CCCN)NC(=O)[C@H](Cc3ccc(OCC(=O)O)cc3)NC(=O)[C@H](Cc3ccc(-c4ccccc4)cc3)NC(=O)[C@H](Cc3ccc(OCC(=O)O)cc3)NC2=O)c1 [Compound 3750] ({CH2CO}-[4Pal][Phe(4-CONH2)]D[Phe(3-Me)]Y(Carboxymethyl)[Bip]Y(Carboxymethyl)[Orn][dL][Dab][Cha][Val(3-OH)]SC[Dab][AEEA][Aun]-OH; thioether N-14) | 125 nM
7 | Cc1cccc(C[C@@H]2NC(=O)[C@H](CC(=O)O)NC(=O)[C@H](Cc3ccc(OCC(=O)O)cc3)NC(=O)[C@H](CCN)NC(=O)CSC[C@@H](C(=O)N[C@@H](CCN)C(=O)NCCOCCOCC(=O)NCCOCCOCC(=O)NCCCCCCCCCCC(=O)O)NC(=O)[C@H](CCC(=O)O)NC(=O)[C@H](C(C)(C)O)NC(=O)[C@H](CC3CCCCC3)NC(=O)[C@H](CCN)NC(=O)[C@@H](CC(C)C)NC(=O)[C@H](CCCN)NC(=O)[C@H](Cc3ccc(OCC(=O)O)cc3)NC(=O)[C@H](Cc3ccc(-c4ccccc4)cc3)NC(=O)[C@H](Cc3ccc(OCC(=O)O)cc3)NC2=O)c1 [Compound 3753] ({CH2CO}-[Dab]Y(Carboxymethyl)D[Phe(3-Me)]Y(Carboxymethyl)[Bip]Y(Carboxymethyl)[Orn][dL][Dab][Cha][Val(3-OH)]EC[Dab][AEEA][AEEA][Aun]-OH; thioether N-14) | 6 nM
8 | Cc1cccc(C[C@@H]2NC(=O)[C@H](CC(=O)O)NC(=O)[C@H](Cc3ccc(OCC(=O)O)cc3)NC(=O)[C@H](Cc3ccncc3)NC(=O)CSC[C@@H](C(=O)N[C@@H](CCN)C(=O)NCCOCCOCC(=O)NCCOCCOCC(=O)NCCCCCCCCCCCCC(=O)O)NC(=O)[C@H](CCC(=O)O)NC(=O)[C@H](C(C)C)NC(=O)[C@H](CC3CCCCC3)NC(=O)[C@H](CCN)NC(=O)[C@@H](CC(C)C)NC(=O)[C@H](CCCN)NC(=O)[C@H](Cc3ccc(C(=O)O)cc3)NC(=O)[C@H](Cc3ccc(-c4ccccc4)cc3)NC(=O)[C@H](Cc3ccc(C(=O)O)cc3)NC2=O)c1 [Compound 3754] ({CH2CO}-[4Pal]Y(Carboxymethyl)D[Phe(3-Me)][Phe(4-COOH)][Bip][Phe(4-COOH)][Orn][dL][Dab][Cha]VEC[Dab][AEEA][AEEA]-{NH(CH2)12COOH}; thioether N-14) | 250 nM

Now from value to compound:

Row | IC50 | SMILES
9 | 314 nM | Cc1cccc(C[C@@H]2NC(=O)[C@H](CC(=O)O)NC(=O)[C@H](Cc3ccc(OCC(=O)O)cc3)NC(=O)[C@H](Cc3ccncc3)NC(=O)CSC[C@@H](C(=O)N[C@@H](CCN)C(=O)NCCOCCOCC(=O)NCCOCCOCC(=O)NCCCCCCCCCCC(=O)O)NC(=O)[C@H](CCCN)NC(=O)[C@H](C(C)(C)O)NC(=O)[C@H](CC3CCCCC3)NC(=O)[C@H](CCN)NC(=O)[C@@H](CC(C)C)NC(=O)[C@H](CCCN)NC(=O)[C@H](Cc3ccc(OCC(=O)O)cc3)NC(=O)[C@H](Cc3ccc(-c4ccccc4)cc3)NC(=O)[C@H](Cc3ccc(OCC(=O)O)cc3)NC2=O)c1 [Compound 3755] ({CH2CO}-[4Pal]Y(Carboxymethyl)D[Phe(3-Me)]Y(Carboxymethyl)[Bip]Y(Carboxymethyl)[Orn][dL][Dab][Cha][Val(3-OH)][Orn]C[Dab][AEEA][AEEA][Aun]-OH; thioether N-14)
10 | 2.6 nM | Cc1cccc(C[C@@H]2NC(=O)[C@H](CC(=O)O)NC(=O)[C@H](Cc3ccc(OCC(=O)O)cc3)NC(=O)[C@H](CCN)NC(=O)CSC[C@@H](C(=O)N[C@@H](CCN)C(=O)NCCOCCOCC(=O)NCCOCCOCC(=O)NCCCCCCCCCCC(=O)O)NC(=O)[C@H](Cc3cnc[nH]3)NC(=O)[C@H](C(C)C)NC(=O)[C@H](CC3CCCCC3)NC(=O)[C@H](CCN)NC(=O)[C@@H](CC(C)C)NC(=O)[C@H](CCCN)NC(=O)[C@H](Cc3ccc(C(=O)O)cc3)NC(=O)[C@H](Cc3ccc(-c4ccccc4)cc3)NC(=O)[C@H](Cc3ccc(C(=O)O)cc3)NC2=O)c1 [Compound 3757] ({CH2CO}-[Dab]Y(Carboxymethyl)D[Phe(3-Me)][Phe(4-COOH)][Bip][Phe(4-COOH)][Orn][dL][Dab][Cha]VHC[Dab][AEEA][AEEA][Aun]-OH; thioether N-14)
11 | 19 nM | Cc1cccc(C[C@@H]2NC(=O)[C@H](CC(=O)O)NC(=O)[C@H](Cc3ccc(OCC(=O)O)cc3)NC(=O)[C@H](CCN)NC(=O)CSC[C@@H](C(=O)N[C@@H](CCN)C(=O)NCCOCCOCC(=O)NCCOCCOCC(=O)NCCCCCCCCCCCCC(=O)O)NC(=O)[C@H](CCC(=O)O)NC(=O)[C@H](C(C)(C)O)NC(=O)[C@H](CC3CCCCC3)NC(=O)[C@H](CCN)NC(=O)[C@@H](CC(C)C)NC(=O)[C@H](CCCN)NC(=O)[C@H](Cc3ccc(OCC(=O)O)cc3)NC(=O)[C@H](Cc3ccc(-c4ccccc4)cc3)NC(=O)[C@H](Cc3ccc(OCC(=O)O)cc3)NC2=O)c1 [Compound 3758] ({CH2CO}-[Dab]Y(Carboxymethyl)D[Phe(3-Me)]Y(Carboxymethyl)[Bip]Y(Carboxymethyl)[Orn][dL][Dab][Cha][Val(3-OH)]EC[Dab][AEEA][AEEA]-{NH(CH2)12COOH}; thioether N-14)
